{"source": "paper PMC8457749", "about": "“Design, Synthesis, and Anticancer Activity Evaluation of Hybrids of Azoles and Barbituric Acids” (Iranian Journal of Pharmaceutical Research : IJPR, 2021)", "key": {"L02 cells": {"tested_on": "L02 cells", "assay": "Antiproliferative activity against normal cell line L02", "type": "cell-based", "conditions": "Homo sapiens, L02, read-out: L02 IC50", "description": "The lack of selective cytotoxicity is the main factor that restricts the dose of most conventional chemotherapeutic agents ([21]). […] Selectivity indexes between cancer cells and L02 cells were calculated."}, "MCF-7 cells": {"tested_on": "MCF-7 cells", "assay": "MTT antiproliferative assay, MCF-7", "type": "cell-based, human", "conditions": "for inhibition at 100 µM / IC50: Homo sapiens, MCF7, 48 h; for inhibition at 100 µM: read-out: Growth Inhibition at 100 μM (%) MCF-7; for IC50: read-out: IC50 MCF-7; for Selectivity index MCF-7: IC50 on normal cells (L02)/IC50 on tumor cells (MCF-7)", "description": "(§1) The antiproliferative activity of the target compounds against the panel of three different human cancer cell lines, liver (BEL-7402), colorectal (HCT-116), and breast (MCF-7) cell lines was evaluated using a standard MTT-based colorimetric assay. All cell lines were obtained from the Key Laboratory of Natural Resources and Functional Molecules of the Changbai Mountain (Yanbian University) and maintained in Dulbecco’s modified Eagle’s medium (DMEM) and RPMI Media 1640 (RPMI1640), supplemented with 10% foetal bovine serum (FBS) at 37 °C in a humidified atmosphere containing 5% CO2.\n(§2) The cells were plated in 96-well plates at appropriate densities to ensure exponential growth throughout the experimental period (9 × 10^3 cells per well) and then allowed to adhere for 24 h. the cells were then treated for 48 h with each compound. After 48 h of incubation, 10 μL of MTT solution was added to each well to a final concentration of 2 mg/mL. the plates were then incubated for a further 4 h. After incubation, the MTT solution was removed and 150 μL of DMSO was added to each well for coloration. The plates were shaken vigorously for 10 min at room temperature to ensure complete solubilisation. The optometric density (OD) was read on a microplate reader (EL × 800, BioTek, Highland Park, Winooski, VT, USA) at 492 nm, and the data were subsequently analysed. The percentage of cell growth inhibition was calculated from the following Equation:\n(§3) Inhibitory rate (%) = [1 − (ODtreated − ODblank)/(ODcontrol − ODblank)] × 100%\n(§4) To obtain the antiproliferative activity of compounds 3a-3s and 4a-4d, the compounds were selected in the same way with four serial concentrations (1, 10, 50 and 100 μM) of those compounds. The optometric density (OD) reading was then used to calculate the IC50."}, "HCT-116 cells": {"tested_on": "HCT-116 cells", "assay": "MTT antiproliferative assay, HCT-116", "type": "cell-based, human", "conditions": "for inhibition at 100 µM / IC50: Homo sapiens, HCT-116, 48 h; for inhibition at 100 µM: read-out: Growth Inhibition at 100 μM (%) HCT-116; for IC50: read-out: IC50 HCT-116; for Selectivity index HCT-116: IC50 on normal cells (L02)/IC50 on tumor cells (HCT-116)", "description": "as §1, §2, §3, §4"}, "BEL-7402 cells [1]": {"tested_on": "BEL-7402 cells", "assay": "MTT antiproliferative assay, BEL-7402", "type": "cell-based, human", "conditions": "for inhibition at 100 µM / IC50: Homo sapiens, Bel-7402, 48 h; for inhibition at 100 µM: read-out: Growth Inhibition at 100 μM (%) BEL-7402; for IC50: read-out: IC50 BEL-7402; for Selectivity index BEL-7402: IC50 on normal cells (L02)/IC50 on tumor cells (BEL-7402)", "description": "as §1, §2, §3, §4"}, "BEL-7402 cells [2]": {"tested_on": "BEL-7402 cells", "assay": "Apoptosis by flow cytometry (annexin V-FITC/PI)", "type": "cell-based, human", "conditions": "24 h", "description": "Apoptosis was detected using an Apoptosis Detection Kit (Invitrogen, Eugene, OR, USA). Briefly, BEL-7402 cells were cultured in 6-well plates (1.0 × 10^6 cells per well) and incubated at 37 °C for 12 h. Cells with exponential growth were then incubated with compound 3s at different concentrations (5 μM and 20 μM). Following 24 h of incubation, the cells were collected, washed twice with PBS and once with 1 × binding buffer, and then stained with 5 […] and […] (5 mg/mL) in 1 × binding buffer for 30 min at 20 °C in the dark. Apoptotic cells were enumerated using a FACSCalibur flow cytometer with Cell Quest software (Becton–Dickinso, Franklin Lakes, NJ, USA)."}, "HCT116 cancer cells": {"tested_on": "HCT116 cancer cells", "set-up": "method as in PMID 30981113", "conditions": "HCT116 cancer cells ref 11; read-out: IC50 anti-proliferative activity HCT116; cited from earlier work"}, "MCF-7 cell line": {"tested_on": "MCF-7 cell line", "set-up": "method as in earlier work", "conditions": "cited from earlier work"}, "HCT116 cell line": {"tested_on": "HCT116 cell line", "set-up": "method as in earlier work", "conditions": "cited from earlier work"}}}
{"smiles": "O=C1NC(=O)C(=Cc2cn(-c3ccc(Cl)cc3)nn2)C(=O)N1", "note": "[Compound 3g, 5-((1-(4-chlorophenyl)-1H-1,2,3-triazol-4-yl)methylene)pyrimidine-2,4,6(1H,3H,5H)-trione]", "values": [{"measurement": "IC50", "setting": "L02 cells", "value": "80.2 ± 6", "unit": "µM"}, {"measurement": "melting point", "value": 250, "unit": "°C"}, {"measurement": "inhibition at 100 µM", "setting": "MCF-7 cells", "value": "23.9 ± 2.9", "unit": "%"}, {"measurement": "IC50", "setting": "MCF-7 cells", "value": "> 100", "unit": "µM"}, {"measurement": "inhibition at 100 µM", "setting": "HCT-116 cells", "value": "68.5 ± 4.6", "unit": "%"}, {"measurement": "IC50", "setting": "HCT-116 cells", "value": "9.59 ± 1.01", "unit": "µM"}, {"measurement": "Selectivity index HCT-116", "setting": "HCT-116 cells", "value": 8.36}, {"measurement": "inhibition at 100 µM", "setting": "BEL-7402 cells [1]", "value": "46.6 ± 4.6", "unit": "%"}, {"measurement": "IC50", "setting": "BEL-7402 cells [1]", "value": "> 100", "unit": "µM"}]}
{"smiles": "O=C1NC(=O)C(=Cc2cn(-c3cc(Cl)ccc3Cl)nn2)C(=O)N1", "note": "[Compound 3h, 5-((1-(2,5-dichlorophenyl)-1H-1,2,3-triazol-4-yl)methylene)pyrimidine-2,4,6(1H,3H,5H)-trione]", "values": [{"measurement": "IC50", "setting": "L02 cells", "value": "78.8 ± 3.9", "unit": "µM"}, {"measurement": "melting point", "value": 250, "unit": "°C"}, {"measurement": "inhibition at 100 µM", "setting": "MCF-7 cells", "value": "92.2 ± 8.5", "unit": "%"}, {"measurement": "IC50", "setting": "MCF-7 cells", "value": "75.9 ± 1.98", "unit": "µM"}, {"measurement": "Selectivity index MCF-7", "setting": "MCF-7 cells", "value": 1.04}, {"measurement": "inhibition at 100 µM", "setting": "HCT-116 cells", "value": "81.2 ± 4.2", "unit": "%"}, {"measurement": "IC50", "setting": "HCT-116 cells", "value": "18.9 ± 1.97", "unit": "µM"}, {"measurement": "Selectivity index HCT-116", "setting": "HCT-116 cells", "value": 4.17}, {"measurement": "inhibition at 100 µM", "setting": "BEL-7402 cells [1]", "value": "82.1 ± 3.2", "unit": "%"}, {"measurement": "IC50", "setting": "BEL-7402 cells [1]", "value": "9.49 ± 1.78", "unit": "µM"}, {"measurement": "Selectivity index BEL-7402", "setting": "BEL-7402 cells [1]", "value": 8.30}]}
{"smiles": "O=C1NC(=O)C(=Cc2cn(-c3cccc(Br)c3)nn2)C(=O)N1", "note": "[Compound 3k, 5-((1-(3-bromophenyl)-1H-1,2,3-triazol-4-yl)methylene)pyrimidine-2,4,6(1H,3H,5H)-trione]", "values": [{"measurement": "IC50", "setting": "L02 cells", "value": "66.4 ± 5.1", "unit": "µM"}, {"measurement": "melting point", "value": 250, "unit": "°C"}, {"measurement": "inhibition at 100 µM", "setting": "MCF-7 cells", "value": "31.7 ± 2.8", "unit": "%"}, {"measurement": "IC50", "setting": "MCF-7 cells", "value": "> 100", "unit": "µM"}, {"measurement": "inhibition at 100 µM", "setting": "HCT-116 cells", "value": "88.9 ± 3.1", "unit": "%"}, {"measurement": "IC50", "setting": "HCT-116 cells", "value": "19.4 ± 1.67", "unit": "µM"}, {"measurement": "Selectivity index HCT-116", "setting": "HCT-116 cells", "value": 3.42}, {"measurement": "inhibition at 100 µM", "setting": "BEL-7402 cells [1]", "value": "81.6 ± 3.6", "unit": "%"}, {"measurement": "IC50", "setting": "BEL-7402 cells [1]", "value": "19.2 ± 1.8", "unit": "µM"}, {"measurement": "Selectivity index BEL-7402", "setting": "BEL-7402 cells [1]", "value": 3.46}]}
{"smiles": "O=C1NC(=O)C(=Cc2cn(-c3ccc(C(F)(F)F)cc3)nn2)C(=O)N1", "note": "[Compound 3s, 5-((1-(4-(trifluoromethyl)phenyl)-1H-1,2,3-triazol-4-yl)methylene)pyrimidine-2,4,6(1H,3H,5H)-trione]", "values": [{"measurement": "IC50", "setting": "L02 cells", "value": "82.2 ± 4.8", "unit": "µM"}, {"measurement": "inhibition at 100 µM", "setting": "MCF-7 cells", "value": "90.4 ± 5.3", "unit": "%"}, {"measurement": "IC50", "setting": "MCF-7 cells", "value": "8.98 ± 0.99", "unit": "µM"}, {"measurement": "Selectivity index MCF-7", "setting": "MCF-7 cells", "value": 9.15}, {"measurement": "inhibition at 100 µM", "setting": "HCT-116 cells", "value": "62.9 ± 1.9", "unit": "%"}, {"measurement": "IC50", "setting": "HCT-116 cells", "value": "21.5 ± 1.19", "unit": "µM"}, {"measurement": "Selectivity index HCT-116", "setting": "HCT-116 cells", "value": 3.82}, {"measurement": "early-stage apoptosis rate (LR)", "setting": "BEL-7402 cells [2]; 5 μM", "value": 1.33, "unit": "%"}, {"measurement": "late-stage apoptosis rate (UR)", "setting": "BEL-7402 cells [2]; 5 μM", "value": 4.94, "unit": "%"}, {"measurement": "dead cells (UL)", "setting": "BEL-7402 cells [2]; 20 μM", "value": 27.40, "unit": "%"}, {"measurement": "early-stage apoptosis rate (LR)", "setting": "BEL-7402 cells [2]; 20 μM", "value": 3.37, "unit": "%"}, {"measurement": "late-stage apoptosis rate (UR)", "setting": "BEL-7402 cells [2]; 20 μM", "value": 35.78, "unit": "%"}, {"measurement": "inhibition at 100 µM", "setting": "BEL-7402 cells [1]", "value": "95.3 ± 4.9", "unit": "%"}, {"measurement": "IC50", "setting": "BEL-7402 cells [1]", "value": "4.02 ± 0.5", "unit": "µM"}, {"measurement": "Selectivity index BEL-7402", "setting": "BEL-7402 cells [1]", "value": 20.45}]}
{"smiles": "C=C1C(=O)[C@]23[C@H](OC(=O)c4cn(-c5ccc(OC)cc5)nn4)[C@H]1CC[C@H]2[C@@]12CO[C@]3(O)[C@@H](O)[C@@H]1C(C)(C)CC[C@@H]2O", "note": "[Compound C]", "values": [{"measurement": "IC50", "setting": "HCT116 cancer cells", "value": 1.94, "unit": "µM"}]}
{"smiles": "CC1=NN=C(C)C1=NNc1sc2c(c1C(N)=O)CCCCC2", "note": "[D]", "values": [{"measurement": "IC50", "setting": "MCF-7 cell line", "value": 22.7, "unit": "µM"}, {"measurement": "IC50", "setting": "HCT116 cell line", "value": 31.1, "unit": "µM"}]}
{"smiles": "C=C1C(=O)[C@]23[C@H](O)[C@H]1CC[C@H]2[C@@]12CO[C@]3(O)[C@@H](O)[C@@H]1C(C)(C)CC[C@@H]2O", "note": "[oridonin]", "values": [{"measurement": "IC50", "setting": "HCT116 cancer cells", "value": 6.84, "unit": "µM"}]}
